# Where two headings read alike, the source gives them in different places.
# Columns and labels:
# [1] = log P by HPLC on reversed-phase column (C18), EEC directive 79/831 Annex V.A8; type: physicochemical; settings: for chromatographic logP: reversed-phase HPLC column (C18)
# Method: a) The determination of the W by LC-MS in the acidic range is effected at pH 2.7, acetonitrile (contains 0.1% formic acid) and water as eluents; linear gradient from 10% acetonitrile to 95% acetonitrile, instrument: Agilent 1100 LC-System, Agilent MSD System, HTS PAL. The log P values reported in the tables and Preparation Examples above were determined in accordance with EEC directive 79/831 Annex V.A8 by HPLC (High Performance Liquid Chromatography) using a reversed-phase column (C18). Temperature 43° C. The calibration is effected with unbranched alkan-2-ones (having 3 to 16 carbon atoms), for which the log P values are known.
# [2] = tested on: larvae of the mustard beetle (Phaedon cochleariae); experiment: Phaedon cochleariae spray test (PHAECO); type: in vivo; settings: for efficacy / pest or weed control at 100 g/ha: spray, after 7 days; for pest or weed control at 100 g/ha / percent efficacy (larval mortality) at 20 g/ha: Phaedon cochleariae, 168 h; for pest or weed control at 100 g/ha: read-out: efficacy; for percent efficacy (larval mortality) at 20 g/ha: PHAECO, 20 g of ai/ha, 7 d, read-out: % Efficacy dat
# Method: Phaedon cochleariae—Spray Test (PHAECO)
# To produce a suitable preparation of active compound, 1 part by weight of active compound is mixed with the stated amounts of solvent and emulsifier, and the concentrate is diluted with emulsifier-containing water to the desired concentration.
# Discs of Chinese cabbage leaves (Brassica pekinensis) are sprayed with an active compound formulation of the desired concentration and, after drying, populated with larvae of the mustard beetle (Phaedon cochleariae).
# After 7 days, the efficacy in % is determined. 100% means that all the beetle larvae have been killed; 0% means that no beetle larvae have been killed.
# After the stated period of time, the effect in % is determined 100% means that all the beetle larvae have been killed; 0% means that no beetle larvae have been killed.
# [3] = HPLC, acidic range pH 2.7, 43° C.
# [4] = pH 2.7, final compounds of the synthesis examples, read-out: log P (HPLC-MS)
# [5] = HPLC, acidic range pH 2.7, 43° C., read-out: log p
Compound,"log p [1, 3]",efficacy ([2]; 100 g/ha) [%],further results
CCn1c(C(=O)NC(c2cccc(C(F)(F)F)c2)C(F)(F)F)cc2cc(C(=O)NC(CF)CF)c(C)nc21 (stereo not shown) [Compound 8],3.67,100,
"CCn1c(C(=O)NC(c2cccc(C(F)(F)F)c2)C(F)(F)F)cc2cc(CNC(C)=O)c(C)nc21 (stereo not shown) [Compound 94, 5-(Acetamidomethyl)-1-ethyl-6-methyl-N-{2,2,2-trifluoro-1-[3-(trifluoromethyl)phenyl]ethyl}-1H-pyrrolo[2,3-b]pyridine-2-carboxamide]",,,"chromatographic logP [1, 4]: 3.16; pest or weed control at 100 g/ha ([2]; 100 g/ha): 100%"
CCn1c(C(=O)NC(c2cccc(C(F)(F)F)c2)C(F)(F)F)cc2cc(C(=O)NC(C)C)c(C)nc21 (stereo not shown) [Compound 4],3.74,100,
CCn1c(C(=O)NC(c2cc(Cl)c(F)c(Cl)c2)C(F)(F)F)cc2cc(C(=O)NC3(C(N)=S)CC3)c(C(F)(F)F)nc21 (stereo not shown) [Compound 78],4.25,,
CCn1c(C(=O)NC(c2ccc(Cl)c(C(F)(F)F)c2)C(F)(F)F)c(Br)c2cc(C(=O)NC3(C(N)=S)CC3)c(C)nc21 (stereo not shown) [Compound 98],,,"chromatographic logP [1, 5]: 3.97"
CCn1c(C(=O)NC(c2cccc(C(F)(F)F)c2)C(F)(F)F)cc2cc(C(=O)Nc3ccc(Cl)cn3)c(Cl)nc21 (stereo not shown) [Compound 40],4.88,83,efficacy ([2]; 500 g/ha): 100%
C#CCn1c(C(=O)NC(c2cc(Cl)c(F)c(Cl)c2F)C(F)(F)F)cc2cc(C(=O)NC3(C#N)CC3)c(Cl)nc21 (stereo not shown) [Compound 80],3.99,,
CCn1c(C(=O)NC(c2ccc(F)c(C(F)(F)F)c2)C(F)(F)F)cc2cc(C(=O)NC3CCC3)c(Cl)nc21 (stereo not shown) [Compound 46],4.20,100,
CCn1c(C(=O)NC(c2cc(Cl)c(F)c(Cl)c2F)C(F)(F)F)cc2cc(C(=O)NC3(C(N)=S)CC3)c(C(F)(F)F)nc21 (stereo not shown) [Compound 82],4.45,,
CCn1c(C(=O)NC(c2ccc(Cl)c(C(F)(F)F)c2)C(F)(F)F)cc2cc(C(=O)NC3CC3)c(Cl)nc21 (stereo not shown) [Compound 88],4.06,,
CCn1c(C(=O)NC(c2cccc(C(F)(F)F)c2)C(F)(F)F)cc2cc(C(=O)NC(C)C)c(Cl)nc21 (stereo not shown) [Compound 14],,,"chromatographic logP [1, 5]: 3.97; pest or weed control at 100 g/ha ([2]; 100 g/ha): 100%; percent efficacy (larval mortality) at 20 g/ha [2]: 100%"
CCn1c(C(=O)NC(c2cccc(C(F)(F)F)c2)C(F)(F)F)cc2cc(C(=O)NCc3ccccn3)c(Cl)nc21 (stereo not shown) [Compound 37],3.18,100,
CCn1c(C(=O)NC(c2ccc(Cl)c(C(F)(F)F)c2)C(F)(F)F)cc2cc(C(=O)NC3(C#N)CC3)c(Cl)nc21 (stereo not shown) [Compound 83],4.02,,
CN(C(=O)c1cc2cc(C(=O)NC3CC3)c(Cl)nc2n1C)C(c1cccc(C(F)(F)F)c1)C(F)(F)F (stereo not shown) [Compound 96],,,"chromatographic logP [1, 5]: 3.63; pest or weed control at 100 g/ha ([2]; 100 g/ha): 100%"
CCn1c(C(=O)NC(c2cc(Cl)c(F)c(Cl)c2)C(F)(F)F)cc2cc(C(=O)NC3(C#N)CC3)c(C(F)(F)F)nc21 (stereo not shown) [Compound 77],4.36,,
CCn1c(C(=O)NC(c2cccc(C(F)(F)F)c2)C(F)(F)F)cc2cc(C(=O)NC)c(Cl)nc21 (stereo not shown) [Compound 51],3.40,100,
CCn1c(C(=O)NC(c2cccc(C(F)(F)F)c2)C(F)(F)F)cc2cc(CNC(=O)C3CC3)c(C)nc21 (stereo not shown) [Compound 92],3.59,,
CCn1c(C(=O)NC(c2cccc(C(F)(F)F)c2)C(F)(F)F)cc2cc(C(=O)NCc3ncccn3)c(Cl)nc21 (stereo not shown) [Compound 47],3.39,100,
CCn1c(C(=O)NC(c2ccc(Cl)c(C(F)(F)F)c2)C(F)(F)F)cc2cc(C(=O)NC3(C(N)=S)CC3)c(Cl)nc21 (stereo not shown) [Compound 84],3.90,,
CCn1c(C(=O)NC(c2cccc(C(F)(F)F)c2)C(F)(F)F)cc2cc(C(=O)NCC(F)F)c(Cl)nc21 (stereo not shown) [Compound 13],3.79,100,
CCn1c(C(=O)NC(c2ccc(F)c(Cl)c2)C(F)(F)F)cc2cc(C(=O)NC3CCC3)c(Cl)nc21 (stereo not shown) [Compound 49],4.11,,
CCn1c(C(=O)NC(c2cc(Cl)c(F)c(Cl)c2)C(F)(F)F)cc2cc(C(=O)NC3CC3)c(Cl)nc21 (stereo not shown) [Compound 20],4.23,100,
CCn1c(C(=O)NC(c2cccc(C(F)(F)F)c2)C(F)(F)F)cc2cc(C(=O)NCC(=O)OC)c(Cl)nc21 (stereo not shown) [Compound 44],3.58,,
CCn1c(C(=O)NC(c2cccc(C(F)(F)F)c2)C(F)(F)F)cc2cc(C(=O)NC(C)CF)c(Cl)nc21 (stereo not shown) [Compound 36],3.83,,
C#CCn1c(C(=O)NC(c2cccc(C(F)(F)F)c2)C(F)(F)F)cc2cc(C(=O)NC3(C#N)CC3)c(C)nc21 (stereo not shown) [Compound 81],3.34,,

Compound,"log p [1, 3]",efficacy ([2]; 100 g/ha) [%],further results
C#CCn1c(C(=O)NC(c2cccc(C(F)(F)F)c2)C(F)(F)F)cc2cc(C(=O)Nc3ccc(Cl)cn3)c(Cl)nc21 (stereo not shown) [Compound 61],4.49,83,
CCn1c(C(=O)NC(c2cc(Cl)c(F)c(Cl)c2F)C(F)(F)F)cc2cc(C(=O)NC3CC3)c(Cl)nc21 (stereo not shown) [Compound 18],4.43,100,
CCn1c(C(=O)NC(c2ccc(Cl)c(C(F)(F)F)c2)C(F)(F)F)cc2cc(C(=O)NC3(C(N)=S)CC3)c(C)nc21 (stereo not shown) [Compound 89],3.72,,
CCn1c(C(=O)NC(c2ccc(F)c(C(F)(F)F)c2)C(F)(F)F)cc2cc(C(=O)NCc3ccccn3)c(Cl)nc21 (stereo not shown) [Compound 55],3.32,83,
CCn1c(C(=O)NC(c2ccc(Cl)c(C(F)(F)F)c2)C(F)(F)F)cc2cc(C(=O)NC3(C#N)CC3)c(C)nc21 (stereo not shown) [Compound 90],3.91,,
CCn1c(C(=O)NC(c2ccc(Cl)c(Cl)c2)C(F)(F)F)cc2cc(C(=O)NC(C)C)c(Cl)nc21 (stereo not shown) [Compound 56],4.29,,
C#CCn1c(C(=O)NC(c2cc(Cl)c(F)c(Cl)c2)C(F)(F)F)cc2cc(C(=O)NC3CC3)c(C(F)(F)F)nc21 (stereo not shown) [Compound 79],4.04,,
CCn1c(C(=O)NC(c2ccc(Cl)c(C(F)(F)F)c2)C(F)(F)F)cc2cc(C(=O)NC3CC3)c(C)nc21 (stereo not shown) [Compound 91],3.90,,
CCn1c(C(=O)NC(c2cccc(C(F)(F)F)c2)C(F)(F)F)cc2cc(C(=O)NCC3CC3)c(Cl)nc21 (stereo not shown) [Compound 57],4.06,100,
C#CCNC(=O)c1cc2cc(C(=O)NC(c3cccc(C(F)(F)F)c3)C(F)(F)F)n(CC)c2nc1Cl (stereo not shown) [Compound 45],3.69,100,
CCCNC(=O)c1cc2cc(C(=O)NC(c3cccc(C(F)(F)F)c3)C(F)(F)F)n(CC)c2nc1Cl (stereo not shown) [Compound 34],,,"chromatographic logP [1, 5]: 3.99; pest or weed control at 100 g/ha ([2]; 100 g/ha): 100%; percent efficacy (larval mortality) at 20 g/ha [2]: 100%"
CCn1c(C(=O)NC(c2cccc(C(F)(F)F)c2)C(F)(F)F)cc2cc(C(=O)NC(CF)CF)c(Cl)nc21 (stereo not shown) [Compound 35],3.83,,
"CCn1c(C(=O)NC(c2ccc(F)c(C(F)(F)F)c2)C(F)(F)F)cc2nc(C(=O)NC3CC3)ccc21 (stereo not shown) [Compound 2, N^5-Cyclopropyl-1-ethyl-N^2-{2,2,2-trifluoro-1-[4-fluoro-3-(trifluoromethyl)phenyl]ethyl}-1H-pyrrolo[3,2-b]pyridine-2,5-dicarboxamide]",,,"chromatographic logP [1, 4]: 3.78"
CCn1c(C(=O)NC(c2cc(Cl)c(F)c(Cl)c2F)C(F)(F)F)cc2cc(C(=O)NC(C)C)c(Cl)nc21 (stereo not shown) [Compound 19],4.62,,
CCn1c(C(=O)NC(c2cc(Cl)c(F)c(Cl)c2)C(F)(F)F)cc2cc(C(=O)NC3CC3)c(C(F)(F)F)nc21 (stereo not shown) [Compound 86],4.42,,
CCn1c(C(=O)NC(c2cccc(C(F)(F)F)c2)C(F)(F)F)cc2cc(C(=O)NC3CC3)cnc21 (stereo not shown) [Compound 3],3.19,100,
CN(C(=O)c1cc2cc(C(=O)NC3(C#N)CC3)c(Cl)nc2n1C)C(c1cccc(C(F)(F)F)c1)C(F)(F)F (stereo not shown) [Compound 97],,,"chromatographic logP [1, 5]: 3.59; pest or weed control at 100 g/ha ([2]; 100 g/ha): 100%"
CCn1c(C(=O)NC(c2ccc(F)c(C(F)(F)F)c2)C(F)(F)F)cc2cc(C(=O)NC(C)C)c(Cl)nc21 (stereo not shown) [Compound 50],4.08,100,
CCn1c(C(=O)NC(c2cc(Cl)c(F)c(Cl)c2)C(F)(F)F)cc2cc(C(=O)NC(C)C)c(Cl)nc21 (stereo not shown) [Compound 21],4.44,,
CCn1c(C(=O)NC(c2cc(Cl)c(F)c(Cl)c2)C(F)(F)F)cc2cc(C(=O)NC3CCC3)c(Cl)nc21 (stereo not shown) [Compound 48],4.62,,
CCCNC(=O)c1cc2cc(C(=O)NC(c3cccc(C(F)(F)F)c3)C(F)(F)F)n(CC)c2cc1Cl (stereo not shown) [reference compound],,,percent efficacy (larval mortality) at 20 g/ha [2]: 67%
CCn1c(C(=O)NC(c2cccc(C(F)(F)F)c2)C(F)(F)F)cc2cc(C(=O)NC(C)C)c(Cl)cc21 (stereo not shown) [reference compound],,,percent efficacy (larval mortality) at 20 g/ha [2]: 0%
CCn1c(C(=O)NC(c2cc(Cl)c(F)c(Cl)c2F)C(F)(F)F)cc2cc(C(=O)NC3CC3)c(C(F)(F)F)nc21 (stereo not shown) [Compound 87],4.66,,
CCn1c(C(=O)NC(c2ccc(Cl)c(Cl)c2)C(F)(F)F)cc2cc(C(=O)NC3CCC3)c(Cl)nc21 (stereo not shown) [Compound 54],4.47,,
